How the values were obtained:
[1] = tested on: LPS-induced pulmonary inflammation; test: LPS-induced pulmonary inflammation: BALF cytokines, synergy analysis; type: in vivo, C57BL/B6 mice; details: HCQ 25 mg/kg, alone or combined, observed; for IL-1β, relative inhibition of cytokine release (BALF) / MCP-1, relative inhibition of cytokine release (BALF) / TNF-α, relative inhibition of cytokine release (BALF): CBD 1 mg/kg; for CXCL-1, relative inhibition of cytokine release (BALF): CBD 10 mg/kg
Experimental: (§1) Male C57BL/B6 mice weighing 10-20 g were used. Vehicle and active agents (i.e., CBD and hydroxychloroquine) alone or in combination were administered intraperitoneally (IP) at 1 hour before LPS (˜80 mg/kg) was administered intratracheally. 24 hours after LPS injection, mice were anaesthetized with pentoparbital and 0.5 mL of PBS was administered twice through a tracheal cannula after which approximately 0.6 mL of broncheoalveolar lavage fluid (BALF) was obtained. The BALF was assayed for IL-1β, TNF-α, MCP-1(MCAF) and CXCL-1 by Luminex. ANOVA followed by Dunnett's test was applied for comparison between vehicle and treatment groups. p<0.05 was considered significant.
(§2) For synergy analysis, data were baseline subtracted using the cytokine levels of sham treated mice (i.e., no LPS injection), before normalising the values for each cytokine relative to maximum values across the groups. The normalised values were used to calculate the relative inhibition where a value of 1 represents complete inhibition and a value of 0 represents no inhibition. Synergy was calculated using the statistical methods described elsewhere herein.
(§3) Drug synergy was determined using the Bliss Independence method where the predicted effect of the drug combination is calculated using the equation: […]

[2] = tested on: LPS-induced production of inflammatory cytokines; test: LPS-induced sepsis in mice: synergy analysis (relative inhibition of cytokine release, Excess over Bliss); type: in vivo, C57BL/6 mice; details: for IFN-γ, relative inhibition of cytokine release / IL-1β, relative inhibition of cytokine release / IL-6, relative inhibition of cytokine release / IL-12(p70), relative inhibition of cytokine release / TNF-α, relative inhibition of cytokine release: HCQ 100 mg/kg, alone or combined, observed
Experimental: (§4) Male C57BL/6 mice weighing 10-20 g were used. Vehicle and active agents (i.e., CBD and hydroxychloroquine) alone or in combination were administered intraperitoneally (IP) (Table 4) or orally (Table 5) at 1 hour before LPS (100 μg/100 μL/mouse) injected intravenously (IV). At 2 hours after LPS injection, blood was collected from all mice by cardiac puncture, sera processed and assayed for biomarkers using either the Th17-plex for IL-1β, IL-2, IL-10, IL-12 (p70), IFN-γ and TNF-α by Luminex, plus IL-6 and D-dimer by ELISA, or the 23-plex for IL-1α, IL-1β, IL-2, IL-3, IL-4, IL-5, IL-6, IL-9, IL-10, IL-12(p40), IL-12(p70), IL-13, IL-17A, Eotaxin, G-CSF, GM-CSF, IFN-γ, KC, MCP-1(MCAF), MIP-1α, MIP-1β, RANTES, and TNF-α by Luminex, plus IL-6 by ELISA. ANOVA followed by Dunnett's test was applied for comparison between vehicle and treatment groups. p<0.05 is considered significant.
as §2, §3

[3] = tested on: LPS-induced sepsis; test: LPS-induced sepsis in mice, intraperitoneal administration: serum immune marker panel (Luminex/ELISA); type: in vivo, C57BL/6 mice
Experimental: as §4

[4] = tested on: LPS-induced sepsis; test: LPS-induced sepsis in mice, oral administration: serum 23-plex immune marker panel; type: in vivo, C57BL/6 mice
Experimental: as §4

[5] = tested on: LPS-induced pulmonary inflammation; test: LPS-induced pulmonary inflammation: lung histopathology lesion score; type: in vivo, C57BL/B6 mice
Experimental: as §1
In a separate test group of animals with pulmonary inflammation induced as detailed above, lungs were harvested at termination (five lobes per lung) and fixed in 10% neutral buffered formalin for histopathology. Samples were sectioned at 4-6 μm and stained with hematoxylin and eosin (H&E) to examine inflammatory lesions as described by Shackleford et al. (2002, Toxicologic Pathology, 30(1): 93-96). Briefly, a score of 0 corresponds to not present, and a score of 5 indicates a severe/high number of lesions. Scores were averaged across lobes for each animal and then across animals for each treatment group.

[6] = hydroxychloroquine 1, 5, 10, 25, 50 and 100 mg/kg IP
[7] = hydroxychloroquine 50 and 100 mg/kg IP
[8] = hydroxychloroquine 20 mg/kg PO alone
[9] = CBD 10 mg/kg, HCQ 25 mg/kg, alone or combined, pulmonary lesion score
[10] = CBD 10 mg/kg alone, 1 = complete inhibition
[11] = CBD 1, 5, 10, 25, 50 and 100 mg/kg IP

With CCN(CCO)CCCC(C)Nc1ccnc2cc(Cl)ccc12 (stereo not drawn) [HCQ] the “IL-1β, relative inhibition of cytokine release (BALF)” value [1] was 0.20, the “MCP-1, relative inhibition of cytokine release (BALF)” value [1] was 0.09 and the “TNF-α, relative inhibition of cytokine release (BALF)” value [1] was 0.14. For the same compound, the “CXCL-1, relative inhibition of cytokine release (BALF)” value [1] was 0.35, the “IFN-γ, relative inhibition of cytokine release” value ([2]; CBD 10 mg/kg) was 0.74 and the “IL-1β, relative inhibition of cytokine release” value ([2]; CBD 10 mg/kg) was 0.01. The “IL-6, relative inhibition of cytokine release” value (shortened to “IL-6, relative inhibition”) ([2]; CBD 10 mg/kg) was 0.22, the “IL-12(p70), relative inhibition of cytokine release” value ([2]; CBD 10 mg/kg) was 0.72 and the “TNF-α, relative inhibition of cytokine release” value ([2]; CBD 10 mg/kg) was 0.55. For the same compound, the “IL-6, relative inhibition” value ([2]; CBD 25 mg/kg) was 0.22, the “Relative inhibition of IFN-γ release in vivo” value ([2]; HCQ 25 mg/kg alone) was 0.57 and the “Relative inhibition of IL-12(p70) release in vivo” value ([2]; HCQ 25 mg/kg alone) was 0.56. For the same compound, the “Relative inhibition of TNF-α release in vivo” value ([2]; HCQ 25 mg/kg alone) was 0.33, the “Relative inhibition of IL-6 release in vivo” value ([2]; HCQ 25 mg/kg alone (Table 21)) was 0.17 and the “Relative inhibition of IL-6 release in vivo” value ([2]; HCQ 25 mg/kg alone (Table 23)) was 0.17. For the same compound, the “D-dimer level vs vehicle group” value [3, 6] was “dose-dependent increase”, the “IL-10 level vs vehicle group” value [3, 6] was “significant (p<0.05) increase” and the “IFN-γ level vs vehicle group” value [3, 7] was “moderate decrease”. For the same compound, the “IL-1β level vs vehicle group” value [3, 7] was “significant (p<0.05) decreases”, the “IL-2 level vs vehicle group” value [3, 7] was “significant (p<0.05) decreases” and the “IL-12(p70) level vs vehicle group” value [3, 7] was “moderate decrease”. For the same compound, the “TNF-α level vs vehicle group” value [3, 7] was “moderate decrease”, the “Effect on biomarker levels” value ([4]; hydroxychloroquine 2 mg/kg PO alone) was “little or no effect” and the “LPS-induced IL-1α release vs vehicle group” value [4, 8] was “moderate suppression”. The “LPS-induced IL-1β release vs vehicle group” value [4, 8] was “moderate suppression”, the “LPS-induced IL-2 release vs vehicle group” value [4, 8] was “moderate suppression” and the “LPS-induced IL-4 release vs vehicle group” value [4, 8] was “moderate suppression”. For the same compound, the “LPS-induced IL-5 release vs vehicle group” value [4, 8] was “moderate suppression”, the “LPS-induced IL-9 release vs vehicle group” value [4, 8] was “moderate suppression” and the “Relative reduction in lesion score” value [5, 9] was 0.37. For the same compound, the “Relative reduction in lesion score” value ([5]; HCQ 2.5 mg/kg) was 0.21.

In the case of C=C(C)[C@@H]1CCC(C)=C[C@H]1c1c(O)cc(CCCCC)cc1O [CBD, cannabidiol], the “IL-1β, relative inhibition of cytokine release (BALF)” value [1] is reported as 0.03, the “MCP-1, relative inhibition of cytokine release (BALF)” value [1] is reported as 0.07 and the “TNF-α, relative inhibition of cytokine release (BALF)” value [1] is reported as 0.23. For the same compound, the “CXCL-1, relative inhibition of cytokine release (BALF)” value [1] was 0.14, the “Relative inhibition of IFN-γ release in vivo” value [2, 10] was 0.00 and the “Relative inhibition of IL-6 release in vivo” value [2, 10] was 0.14. For the same compound, the “Relative inhibition of IL-12(p70) release in vivo” value [2, 10] was 0.00, the “Relative inhibition of TNF-α release in vivo” value [2, 10] was 0.00 and the “IFN-γ, relative inhibition of cytokine release” value ([2]; CBD 10 mg/kg) was 0.00. For the same compound, the “IL-1β, relative inhibition of cytokine release” value ([2]; CBD 10 mg/kg) was 0.34, the “IL-6, relative inhibition” value ([2]; CBD 10 mg/kg) was 0.14 and the “IL-12(p70), relative inhibition of cytokine release” value ([2]; CBD 10 mg/kg) was 0.00. The “TNF-α, relative inhibition of cytokine release” value ([2]; CBD 10 mg/kg) was 0.00, the “Relative inhibition of IL-6 release in vivo” value ([2]; CBD 25 mg/kg alone) was 0.03 and the “IL-6, relative inhibition” value ([2]; CBD 25 mg/kg) was 0.03. For the same compound, the “IFN-γ level vs vehicle group” value ([3]; CBD 5 mg/kg IP) was “Moderate reductions”, the “IFN-γ level vs vehicle group” value ([3]; CBD 10 mg/kg IP) was “moderate reduction” and the “IL-1β level vs vehicle group” value ([3]; CBD 10 mg/kg IP) was “moderate reduction”. For the same compound, the “IL-2 level vs vehicle group” value ([3]; CBD 10 mg/kg IP) was “moderate reduction”, the “IL-12(p70) level vs vehicle group” value ([3]; CBD 10 mg/kg IP) was “moderate reduction” and the “TNF-α level vs vehicle group” value ([3]; CBD 10 mg/kg IP) was “moderate reduction”. The “IFN-γ level vs vehicle group” value ([3]; CBD 25 mg/kg IP) was “Moderate reductions”, the “TNF-α level vs vehicle group” value ([3]; CBD 25 mg/kg IP) was “Moderate reductions” and the “IL-1β level vs vehicle group” value ([3]; CBD 100 mg/kg IP) was “significant (p<0.05) increase”. For the same compound, the “IL-10 level vs vehicle group” value ([3]; CBD 100 mg/kg IP) was “significant (p<0.05) increase”, the “LPS-induced D-dimer level vs vehicle control” value [3, 11] was “dose-dependent increase” and the “LPS-induced IL-1β level vs vehicle control” value [3, 11] was “dose-dependent increase”. The “LPS-induced IL-10 level vs vehicle control” value [3, 11] was “dose-dependent increase”, the “Shape of dose response in the reduction of LPS-induced cytokine levels” value ([3]; CBD 1-100 mg/kg IP) was “bell-shaped dose response curve” and the “Effect on biomarker levels” value ([4]; CBD 1 mg/kg PO alone) was “little or no effect”. For the same compound, the “LPS-induced IL-1α release vs vehicle group” value ([4]; CBD 10 mg/kg PO alone) was “moderate suppression”, the “LPS-induced IL-1β release vs vehicle group” value ([4]; CBD 10 mg/kg PO alone) was “moderate suppression” and the “LPS-induced IL-2 release vs vehicle group” value ([4]; CBD 10 mg/kg PO alone) was “moderate suppression”. For the same compound, the “LPS-induced IL-4 release vs vehicle group” value ([4]; CBD 10 mg/kg PO alone) was “moderate suppression”, the “LPS-induced IL-5 release vs vehicle group” value ([4]; CBD 10 mg/kg PO alone) was “moderate suppression” and the “LPS-induced IL-9 release vs vehicle group” value ([4]; CBD 10 mg/kg PO alone) was “moderate suppression”. The “Relative reduction in lesion score” value ([5]; CBD 1 mg/kg) was 0.18 and the “Relative reduction in lesion score” value [5, 9] was 0.29.

From patent publication US20230128114A1, “METHODS AND COMPOSITIONS FOR TREATING OR PREVENTING AN INFLAMMATORY CONDITION” (priority 2020, published 2023)
